From US20130217664A1, “NOVEL COMPOUNDS USEFUL FOR THE TREATMENT OF DEGENERATIVE AND INFLAMMATORY DISEASES” (priority 2012, published 2013)
Read-outs that look alike come from different tables or passages of the source.

Experiments:
[1] = tested on: pSTAT1(2)-luciferase reporter in HeLa cells triggered with human OSM; assay: JAK-STAT signalling assay; assay type: cell-based; conditions: HeLa cells, pSTAT1(2)-luciferase reporter, human OSM 33 ng/mL, read-out: JAK-STAT IC50
How it was run: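 Compound added 60 min before 33 ng/mL (final) human OSM; after overnight stimulation at 37 °C, luciferase signal from a transiently transfected pSTAT1(2) reporter in HeLa cells was read, with LacZ as internal control. EC50 derived from percent-inhibition dose-response curves.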

[2] = biological target: T1, human TYK2 (Homo sapiens, UniProt P29597); assay: TYK2 inhibition assay; assay type: biochemical; conditions: recombinant human TYK2 catalytic domain, polyGT substrate
T1 construct: catalytic domain (amino acids 871-1187; catalog number 08-147); purchased Carna Biosciences 08-147
T1 sequence (P29597 871-1187): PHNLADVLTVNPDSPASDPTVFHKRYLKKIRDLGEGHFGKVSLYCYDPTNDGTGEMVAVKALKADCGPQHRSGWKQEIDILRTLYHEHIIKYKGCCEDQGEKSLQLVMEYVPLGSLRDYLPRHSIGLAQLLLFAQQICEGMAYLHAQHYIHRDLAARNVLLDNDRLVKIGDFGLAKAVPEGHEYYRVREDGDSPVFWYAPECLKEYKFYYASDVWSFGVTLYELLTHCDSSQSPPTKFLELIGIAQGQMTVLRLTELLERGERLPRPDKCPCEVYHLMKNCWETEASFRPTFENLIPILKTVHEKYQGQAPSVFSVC
How it was run: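 Radiometric kinase reaction run 90 min at 30 °C, stopped with phosphoric acid, washed and scintillation-counted.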

[3] = biological target: T2, human JAK3 (Homo sapiens, UniProt P52333); assay: JAK3 inhibition assay; assay type: biochemical; conditions: recombinant human JAK3 catalytic domain; polyGT substrate
T2 construct: catalytic domain (amino acids 781-1124; catalog number PV3855); purchased Invitrogen PV3855
How it was run: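 Radiometric kinase assay: 0.5 ng JAK3 with 2.5 μg polyGT in Tris pH 7.5/MgCl2 buffer, 1 μM ATP plus 0.25 μCi 33P-γ-ATP, 1% DMSO, 45 min at 30 °C, stopped with phosphoric acid.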

T2 sequence (P52333 781-1124): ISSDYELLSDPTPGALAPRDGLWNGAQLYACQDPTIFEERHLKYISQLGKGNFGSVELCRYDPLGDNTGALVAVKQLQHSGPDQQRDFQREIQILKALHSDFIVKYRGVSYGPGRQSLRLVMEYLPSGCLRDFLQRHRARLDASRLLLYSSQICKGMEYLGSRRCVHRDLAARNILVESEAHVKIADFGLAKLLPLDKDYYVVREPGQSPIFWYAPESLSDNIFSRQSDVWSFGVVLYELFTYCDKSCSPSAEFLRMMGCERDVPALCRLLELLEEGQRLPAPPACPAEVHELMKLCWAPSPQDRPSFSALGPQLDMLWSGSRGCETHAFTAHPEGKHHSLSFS

Structure (SMILES): CCc1ccc(C#N)cc1N(C)c1cc2c(cn1)ncn2C [Compound 83, 4-ethyl-3-(methyl(1-methyl-1H-imidazo[4,5-c]pyridin-6-yl)amino)benzonitrile]
- IC50 ([1]; Homo sapiens, HeLa): > 1000 nM
- IC50 [2]: 101 to 500 nM
- IC50 [3]: > 1000 nM

Structure (SMILES): CCc1cc(F)ccc1N(C)c1cc2c(cn1)ncn2C [Compound 28, N-(2-Ethyl-4-fluorophenyl)-N,1-dimethyl-1H-imidazo[4,5-c]pyridin-6-amine]
- IC50 ([1]; Homo sapiens, HeLa): > 1000 nM
- IC50 [2]: 101 to 500 nM
- IC50 [3]: > 1000 nM

Structure (SMILES): Cc1ccc(OCc2cccnc2)cc1N(C)c1cc2c(cn1)ncn2C [Compound 61, N,1-dimethyl-N-(2-methyl-5-(pyridin-3-ylmethoxy)phenyl)-1H-imidazo[4,5-c]pyridin-6-amine]
- IC50 [1]: > 1000 nM
- IC50 [2]: > 1000 nM
- IC50 [3]: > 1000 nM

Structure (SMILES): Cc1cc(CO)ccc1N(C)c1cc2c(cn1)ncn2C [Compound 29, (3-Methyl-4-(methyl(1-methyl-1H-imidazo[4,5-c]pyridin-6-yl)amino)phenyl) MeOH]
- IC50 ([1]; Homo sapiens, HeLa): > 1000 nM
- IC50 [2]: 501 to 1000 nM
- IC50 [3]: > 1000 nM

Structure (SMILES): CCc1cc(CNS(C)(=O)=O)cc(F)c1N(C)c1cc2c(cn1)ncn2C [Compound 323, N-{3-Ethyl-5-fluoro-4-[methyl-(1-methyl-1H-imidazo[4,5-c]pyridin-6-yl)-amino]-benzyl}-methanesulfonamide]
- IC50 ([1]; Homo sapiens, HeLa): 1 to 500 nM
- IC50 [2]: 0.01 to 100 nM
- IC50 [3]: 0.01 to 100 nM

Structure (SMILES): CCc1cc(CNS(=O)(=O)C(F)F)c(F)cc1N(C)c1cc2c(cn1)ncn2C [Compound 327, N-{5-Ethyl-2-fluoro-4-[methyl-(1-methyl-M-imidazo[4,5-c]pyridin-6-yl)-amino]-benzyl}-C,C-difluoro-methanesulfonamide]
- IC50 ([1]; Homo sapiens, HeLa): 1 to 500 nM
- IC50 [2]: 0.01 to 100 nM
- IC50 [3]: 0.01 to 100 nM

Structure (SMILES): CCc1cc(CO)ccc1N(C)c1cc2c(cn1)ncn2C [Compound 81, (3-Ethyl-4-(methyl(1-methyl-1H-imidazo[4,5-c]pyridin-6-yl)amino)phenyl)MeOH]
- IC50 ([1]; Homo sapiens, HeLa): 1 to 500 nM
- IC50 [2]: 0.01 to 100 nM
- IC50 [3]: 101 to 500 nM

Structure (SMILES): Cc1ccc(OCc2ccccc2)cc1N(C)c1cc2c(cn1)ncn2C [Compound 56, N-(5-(benzyloxy)-2-methylphenyl)-N,1-dimethyl-1H-imidazo[4,5-c]pyridin-6-amine]
- IC50 [1]: > 1000 nM
- IC50 [2]: > 1000 nM
- IC50 [3]: > 1000 nM

Structure (SMILES): CCc1cc(CN(C)S(C)(=O)=O)c(F)cc1N(C)c1cc2c(cn1)ncn2C [Compound 319, N-{5-Ethyl-2-fluoro-4-[methyl-(1-methyl-1H-imidazo[4,5-c]pyridin-6-yl)-amino]-benzyl}-N-methyl-methanesulfonamide]
- IC50 ([1]; Homo sapiens, HeLa): 501 to 1000 nM
- IC50 [2]: 0.01 to 100 nM
- IC50 [3]: 0.01 to 100 nM

Structure (SMILES): CCc1cc(CNS(=O)(=O)C(F)F)ncc1N(C)c1cc2c(cn1)ncn2C [Compound 343, N-{4-Ethyl-5-[methyl-(1-methyl-1H-imidazo[4,5-c]pyridin-6-yl)-amino]-pyridin-2-ylmethyl}-C,C-difluoro-methane sulfonamide]
- IC50 [1]: 501 to 1000 nM
- IC50 [2]: 501 to 1000 nM
- IC50 [3]: 101 to 500 nM

Structure (SMILES): Cc1ccc(Oc2ccc(C#N)nc2)cc1N(C)c1cc2c(cn1)ncn2C [Compound 91, 5-(4-methyl-3-(methyl(1-methyl-1H-imidazo[4,5-c]pyridin-6-yl)amino)phenoxy)picolino-nitrile]
- IC50 [1]: > 1000 nM
- IC50 [2]: > 1000 nM
- IC50 [3]: > 1000 nM

Structure (SMILES): COc1ccc(COc2ccc(C)c(N(C)c3cc4c(cn3)ncn4C)c2)cc1 [Compound 43, N-(5-(4-methoxybenzyloxy)-2-methylphenyl)-N,1-dimethyl-1H-imidazo[4,5-c]pyridin-6-amine]
- IC50 [1]: > 1000 nM
- IC50 [2]: > 1000 nM
- IC50 [3]: > 1000 nM

Structure (SMILES): CCc1cc(C2CN(CC#N)C2)ncc1N(C)c1cc2c(cn1)ncn2C [Compound 331, (3-{4-Ethyl-5-[methyl-(1-methyl-1H-imidazo[4,5-c]pyridin-6-yl)-amino]-pyridin-2-yl}-azetidin-1-yl)-acetonitrile]
- IC50 [1]: > 1000 nM
- IC50 [2]: 501 to 1000 nM
- IC50 [3]: > 1000 nM

Structure (SMILES): Cc1cc(OCCCC#N)ccc1N(C)c1cc2c(cn1)ncn2C [Compound 48, 4-(3-methyl-4-(methyl(1-methyl-1H-imidazo[4,5-c]pyridin-6-yl)amino)phenoxy)butane nitrile]
- IC50 ([1]; Homo sapiens, HeLa): > 1000 nM
- IC50 [2]: 501 to 1000 nM
- IC50 [3]: > 1000 nM

Structure (SMILES): Cc1cc(C#N)ccc1N(C)c1cc2c(cn1)ncn2C [Compound 31, 3-Methyl-4-(methyl(1-methyl-1H-imidazo[4,5-c]pyridin-6-yl)amino)benzonitrile]
- IC50 ([1]; Homo sapiens, HeLa): > 1000 nM
- IC50 [2]: 501 to 1000 nM
- IC50 [3]: > 1000 nM

Structure (SMILES): CCc1cc(CNS(=O)(=O)C(F)F)cc(F)c1N(C)c1cc2c(cn1)ncn2C [Compound 324, N-{3-Ethyl-5-fluoro-4-[methyl-(1-methyl-1H-imidazo[4,5-c]pyridin-6-yl)-amino]-benzyl}-C,C-difluoro-methanesulfonamide]
- IC50 ([1]; Homo sapiens, HeLa): 1 to 500 nM
- IC50 [2]: 0.01 to 100 nM
- IC50 [3]: 0.01 to 100 nM

Structure (SMILES): CCc1ccccc1N(CC1CC1)c1cc2c(cn1)ncn2C [Compound 35, N-(cyclopropylmethyl)-N-(2-ethylphenyl)-1-methyl-1H-imidazo[4,5-c]pyridin-6-amine]
- IC50 ([1]; Homo sapiens, HeLa): > 1000 nM
- IC50 [2]: 101 to 500 nM
- IC50 [3]: 501 to 1000 nM

Structure (SMILES): Cc1ccc(OCC(C)C)cc1N(C)c1cc2c(cn1)ncn2C [Compound 63, N-(5-isobutoxy-2-methylphenyl)-N,1-dimethyl-1H-imidazo[4,5-c]pyridin-6-amine]
- IC50 ([1]; Homo sapiens, HeLa): > 1000 nM
- IC50 [2]: > 1000 nM
- IC50 [3]: > 1000 nM

Structure (SMILES): CCc1cc(C(C)(C)O)ccc1N(C)c1cc2c(cn1)ncn2C [Compound 103, 2-(3-Ethyl-4-(methyl(1-methyl-1H-imidazo[4,5-c]pyridin-6-yl)amino)phenyl)propan-2-ol]
- IC50 ([1]; Homo sapiens, HeLa): > 1000 nM
- IC50 [2]: 0.01 to 100 nM
- IC50 [3]: 101 to 500 nM

Structure (SMILES): CCc1cc(-c2cnc(NC(C)=O)nc2)ccc1N(C)c1cc2c(cn1)ncn2C [Compound 115, N-(5-(3-Ethyl-4-(methyl(1-methyl-1H-imidazo[4,5-c]pyridin-6-yl)amino)phenyl)pyrimidin-2-yl)acetamide]
- IC50 ([1]; Homo sapiens, HeLa): 1 to 500 nM
- IC50 [2]: 0.01 to 100 nM
- IC50 [3]: > 1000 nM

Structure (SMILES): CCc1cc(-c2ccc(C)s2)ncc1N(C)c1cc2c(cn1)ncn2C [Compound 311, [4-Ethyl-6-(5-methyl-thiophen-2-yl)-pyridin-3-yl]-methyl-(1-methyl-1H-imidazo[4,5-c]pyridin-6-yl)-amine]
- IC50 ([1]; Homo sapiens, HeLa): 1 to 500 nM
- IC50 [2]: 0.01 to 100 nM
- IC50 [3]: 101 to 500 nM

Structure (SMILES): CCc1ccccc1N(CC(F)F)c1cc2c(cn1)ncn2C [Compound 463, N-(2,2-difluoroethyl)-N-(2-ethylphenyl)-1-methyl-1H-imidazo[4,5-c]pyridin-6-amine]
- IC50 [1]: > 1000 nM
- IC50 [2]: 0.01 to 100 nM
- IC50 [3]: 101 to 500 nM

Structure (SMILES): CN(c1ccc(CC#N)cc1)c1cc2c(cn1)ncn2C [Compound 26, 2-(4-(Methyl(1-methyl-1H-imidazo[4,5-c]pyridin-6-yl)amino)phenyl)acetonitrile]
- IC50 ([1]; Homo sapiens, HeLa): > 1000 nM
- IC50 [2]: 101 to 500 nM
- IC50 [3]: > 1000 nM

Structure (SMILES): Cc1cc(-c2cncnc2)ccc1N(C)c1cc2c(cn1)ncn2C [Compound 72, N,1-dimethyl-N-(2-methyl-4-(pyrimidin-5-yl)phenyl)-1H-imidazo[4,5-c]pyridin-6-amine]
- IC50 ([1]; Homo sapiens, HeLa): > 1000 nM
- IC50 [2]: 501 to 1000 nM
- IC50 [3]: > 1000 nM

Structure (SMILES): CCc1cc(C2CN(S(C)(=O)=O)C2)ncc1N(C)c1cc2c(cn1)ncn2C [Compound 328, [4-Ethyl-6-(1-methanesulfonyl-azetidin-3-yl)-pyridin-3-yl]-methyl-(1-methyl-1H-imidazo[4,5-c]pyridin-6-yl)-amine]
- IC50 [1]: > 1000 nM
- IC50 [2]: 501 to 1000 nM
- IC50 [3]: > 1000 nM

Structure (SMILES): CN(c1ccc(O)cc1)c1cc2c(cn1)ncn2C [Compound 17, 4-(methyl(1-methyl-1H-imidazo[4,5-c]pyridin-6-yl)amino)phenol]
- IC50 ([1]; Homo sapiens, HeLa): > 1000 nM
- IC50 [2]: 101 to 500 nM
- IC50 [3]: > 1000 nM

Structure (SMILES): Cc1cc(OCC#N)ccc1N(C)c1cc2c(cn1)ncn2C [Compound 47, 2-(3-methyl-4-(methyl(1-methyl-1H-imidazo[4,5-c]pyridin-6-yl)amino)phenoxy)acetoni-trile]
- IC50 ([1]; Homo sapiens, HeLa): > 1000 nM
- IC50 [2]: 101 to 500 nM
- IC50 [3]: 501 to 1000 nM

Structure (SMILES): CCc1cc(-c2cnn(C)c2)ccc1N(C)c1cc2c(cn1)ncn2C [Compound 93, N-(2-Ethyl-4-(1-methyl-1H-pyrazol-4-yl)phenyl)-N,1-dimethyl-1H-imidazo[4,5-d]pyridin-6-amine]
- IC50 ([1]; Homo sapiens, HeLa): 1 to 500 nM
- IC50 [2]: 0.01 to 100 nM
- IC50 [3]: 101 to 500 nM

Structure (SMILES): Cc1ccc(OCc2ccc(Cl)cc2)cc1N(C)c1cc2c(cn1)ncn2C [Compound 62, N-(5-(4-chlorobenzyloxy)-2-methylphenyl)-N,1-dimethyl-1H-imidazo[4,5-c]pyridin-6-amine]
- IC50 [1]: > 1000 nM
- IC50 [2]: > 1000 nM
- IC50 [3]: > 1000 nM

Structure (SMILES): CCc1cc(C(=O)NC)ccc1N(C)c1cc2c(cn1)ncn2C [Compound 85]
- IC50 ([1]; Homo sapiens, HeLa): > 1000 nM
- IC50 [2]: 101 to 500 nM
- IC50 [3]: > 1000 nM
